Assay results: US6316623A, “Ethylenediamine compound libraries” (priority 1998, dated 2001)

Test system: E. coli imp-
Test: microbe, parasite or virus in culture
Format: cell-based
Conditions: Escherichia coli, 24 h, read-out: % inhibition of bacterial growth in culture
Method: In this assay, the strain E. coli imp-obtained from Spenser Bensen (Sampson, B. A., Misra, R. & Benson, S. A. (1989), Genetics, 122, 491-501, Identification and characterization of a new gene of Escherichia coli K-12 involved in outer membrane permeability) is used. To initiate the exponential phase of bacterial growth prior to the assay, a sample of bacteria was grown overnight at 37° C. in Luria broth and then used to reinoculate sample wells of 96-well microtiter plates. The assays were carried out in the 96-well microtiter plates in 150 μL volume with approximately 1×10^6 cells per well.
Bacteria in Luria broth (75 μL) was added to the compound mixtures in solution in 75 μL water in the individual well of the microtiter plate. Final concentrations of the compound mixtures were 25 μM, 10 μM and 1 μM. Each concentration of the compound mixtures were assayed in triplicate. The plates were incubated at 37° C. and growth monitored over a 24 hour period by measuring the optical density at 595 nm using a BioRad model 3550 UV microplate reader. The percentage of growth relative to a well containing no compound was determined. Ampicillin and tetracycline antibiotic positive controls were concurrently tested in each screening assay.

## CC(C)(C)c1ccc(C(=O)N(CCNC(N)=O)CC2CCCN(C(=O)CO)C2)cc1 (racemic) [compound 17959]
  inhibition at 500 µM: 39.5%

## CC(C)(C)c1ccc(C(=O)N(CCNC(=O)c2cnccn2)CC2CCN(C(=O)Cc3ccccc3)CC2)cc1 [compound 17925]
  inhibition at 500 µM: 93.9%

## CC(C)(C)c1ccc(C(=O)N(CCNC(=O)c2cnccn2)C2CCN(C(=O)Cc3ccccc3)C2)cc1 (racemic) [compound 17989]
  inhibition at 500 µM: 38.5%

## CC(C)(C)c1ccc(C(=O)N(CCNC(N)=O)CC2CCN(C(=O)CO)CC2)cc1 [compound 17927]
  inhibition at 500 µM: 96.3%

## Cc1ccc(NC(=O)NCCN(CC2CCN(C(=O)CO)CC2)C(=O)c2ccc(N)cc2)cc1 [compound 17946]
  inhibition at 500 µM: 98.7%

## CC(C)(C)c1ccc(C(=O)N(CCNC(=O)c2cnccn2)CC2CCCN(C(=O)Cc3ccccc3)C2)cc1 (racemic) [compound 17957]
  inhibition at 500 µM: 95.7%

## O=C(NCCN(C(=O)CO)C1CCN(C(=O)Cc2ccccc2)C1)c1cnccn1 (racemic) [compound 18005]
  inhibition at 500 µM: 61.1%

## Cc1ccc(NC(=O)NCCN(C(=O)C2CC2)C2CCN(C(=O)Cc3ccccc3)C2)cc1 (racemic) [compound 17986]
  inhibition at 500 µM: 35.2%
